From patent US20170290774A1, “NEUROKININ-1 RECEPTOR ANTAGONIST COMPOSITION FOR TREATMENT OF DISEASES AND CONDITIONS OF THE RESPIRATORY TRACT” (PLUS VITECH, S.L., priority 2014, published 2017)

System: Fibrosis
Assay: Area occupied by fibrosis in hematoxylin/eosin sections of sodium hypochlorite aerosol-treated rabbits
Assay type: in vivo, New Zealand albino rabbits
Text: It is known that the factors TGF-α, TGF-β 1, TGF-β 2, TGF-β 3, SPARC, MMP-3; MMP-7, MMP-9, MMP-11, MMP-13 and MMP-14, TGF-β, NF-kB, EGF, MMP-9, VEGF and TNF-α which are produced by lung cells (pneumocytes, fibroblasts and vascular endothelial cells) and inflammatory cells (macrophages, lymphocytes and polymorphonuclear leukocytes) are involved in the pathophysiology and development of said respiratory tract diseases. […] Herein, 27 New Zealand albino rabbits (New Zealand White Rabbit) with an initial average weight about 3 kg were used in this example. All subjects were administered an aerosol of a solution consisting of a mixture of water and sodium hypochlorite (35 g sodium hypochlorite per liter of water) at a rate of 5 mL of said solution by inhalation three times a day for 7 days (days 1 to 7 of experimentation). Subsequently, from days 3 to 7, a group of 3 rabbits (Group 1) was administered an oral dose of 10 mg/kg body weight per day, another group of 3 rabbits (Group 2) was administered an oral dose of 40 mg/kg body weight per day, a third group (Group 3) was administered an oral dose of 80 mg/kg body weight per day and a fourth group (Group 4) was administered an oral dose of 100 mg/kg body weight per day. […] This mixture was administered as an aerosol by inhalation, also from days 3 to 7, to a group of 3 rabbits (group 5) at a dose of 0.05 mg/kg body weight per day, to another group of three rabbits (Group 6) at a dose of 0.1 mg/kg body weight per day, to another group of three rabbits (Group 7) at a dose of 0.2 mg/kg body weight per day and to another group of three rabbits (Group 8) at a dose of 0.4 mg/kg body weight per day. A placebo consisting only of olive oil was administered from days 3 to 7 to a control group of 3 rabbits (placebo group). In parallel, 3 rabbits were kept under identical conditions but were not administered any treatment nor the aforementioned sodium hypochlorite solution (control group). […] On day 7 of the experiment all animals were euthanized and necropsied. […] Samples were taken at the peripheral level of the lung parenchyma, just below the pleural surface. Tissue samples were also taken from the nasal cavity, pharynx, larynx and bronchi. Immunohistochemistry studies were performed for all samples to evaluate the levels of the markers TGF-α, TGF-β 1, TGF-β 2, TGF-β 3 SPARC, MMP-3; MMP-7, MMP-9, MMP-11, MMP-14, TGF-β, TNF-α and VEGF. The samples were then allowed to cool to room temperature over 10 minutes. Endogenous peroxidase activity was blocked by treatment with 3% hydrogen peroxide over 30 min at room temperature. […] In order to verify the expression of NK1 receptors, the cell samples were incubated in the presence of anti-NK1 antibodies ([…], Sigma-Aldrich) diluted 1:1000 at 4° C. overnight. After this time they were washed in 0.05M Tris buffer at room temperature. Subsequently, Envision System-HRP (Dako) reagents were added for 30 min at room temperature. Once this time had expired, the samples were again washed with 0.05 M Tris buffer, and immunoreactivity was visualized by light microscopy with a chromogenic solution with 3,3'-diaminobenzidine (DAB+; Dako, USA). In order to differentiate the cell nuclei, these were lightly stained with haematoxylin. Samples that were not incubated with the primary antibody, but wherein this was replaced by a non-immune serum were used as negative controls. In order to evaluate markers in these immunohistochemical assays, specific primary antibodies were used against them at a concentration 1:1000, as detailed in Table 12. Furthermore, for each of the sampled sections were placed on slides and stained with haematoxylin-eosin before subsequently being deparaffinised by immersion in xylene and then rehydrated through immersion in a series of solutions containing decreasing concentrations of ethanol and, finally, immersing them in water, eosin (20 seconds) and hematoxylin (40 seconds). All experiments were performed in sextuplicate. […]

For `C[C@@H](OC1OCCN(Cc2nc(=O)[nH][nH]2)C1c1ccc(F)cc1)c1cc(C(F)(F)F)cc(C(F)(F)F)c1` (stereo in doubt) [Aprepitant, 5-([(2R,3S)-2-((R)-1-[3,5-bis(trifluoromethyl)phenyl]ethoxy)-3-(4-fluorophenyl)morpholino]methyl)-1H-1,2,4-triazol-3(2H)-one], the “Percent increase in Fibrosis with respect to the control group” value (bronchial tissue, Group 1, oral 10 mg/kg per day) was 2,500.10%, the “Percent increase in Fibrosis with respect to the control group” value (bronchial tissue, Group 2, oral 40 mg/kg per day) was 2,000.00% and the “Percent increase in Fibrosis with respect to the control group” value (bronchial tissue, Group 3, oral 80 mg/kg per day) was 1,500.00%. For the same molecule, the “Percent increase in Fibrosis with respect to the control group” value (bronchial tissue, Group 4, oral 100 mg/kg per day) was 1,000.00%, the “% Med G5/C: percent increase in Fibrosis with respect to the control group” value (bronchial tissue, Group 5) was 2,000.00% and the “% Med G6/C: percent increase in Fibrosis with respect to the control group” value (bronchial tissue, Group 6) was 1,000.00%. The “% Med G7/C: percent increase in Fibrosis with respect to the control group” value (bronchial tissue, Group 7) was 500.00%, the “% Med G8/C: percent increase in Fibrosis with respect to the control group” value (bronchial tissue, Group 8) was 100.50% and the “Percent increase in Fibrosis with respect to the control group” value (laryngeal tissue, Group 1, oral 10 mg/kg per day) was 250.50%. The “Percent increase in Fibrosis with respect to the control group” value (laryngeal tissue, Group 2, oral 40 mg/kg per day) was 225.70%, the “Percent increase in Fibrosis with respect to the control group” value (laryngeal tissue, Group 3, oral 80 mg/kg per day) was 200.57% and the “Percent increase in Fibrosis with respect to the control group” value (laryngeal tissue, Group 4, oral 100 mg/kg per day) was 150.70%. The “Percent increase in Fibrosis with respect to the control group” value (laryngeal tissue, Group 5, inhalation 0.05 mg/kg per day) was 375.50%, the “Percent increase in Fibrosis with respect to the control group” value (laryngeal tissue, Group 6, inhalation 0.1 mg/kg per day) was 275.45% and the “Percent increase in Fibrosis with respect to the control group” value (laryngeal tissue, Group 7, inhalation 0.2 mg/kg per day) was 200.60%. The “Percent increase in Fibrosis with respect to the control group” value (laryngeal tissue, Group 8, inhalation 0.4 mg/kg per day) was 125.40%, the “Percent increase in Fibrosis with respect to the control group” value (lung tissue, Group 1, oral 10 mg/kg per day) was 1,272.22% and the “Percent increase in Fibrosis with respect to the control group” value (lung tissue, Group 2, oral 40 mg/kg per day) was 683.33%. The “Percent increase in Fibrosis with respect to the control group” value (lung tissue, Group 3, oral 80 mg/kg per day) was 611.11%, the “Percent increase in Fibrosis with respect to the control group” value (lung tissue, Group 4, oral 100 mg/kg per day) was 516.67% and the “Percent increase in Fibrosis with respect to the control group” value (lung tissue, Group 5, inhalation 0.05 mg/kg per day) was 1,127.78%. The “Percent increase in Fibrosis with respect to the control group” value (lung tissue, Group 6, inhalation 0.1 mg/kg per day) was 433.33%, the “Percent increase in Fibrosis with respect to the control group” value (lung tissue, Group 7, inhalation 0.2 mg/kg per day) was 233.33% and the “Percent increase in Fibrosis with respect to the control group” value (lung tissue, Group 8, inhalation 0.4 mg/kg per day) was 161.11%. The “Percent increase in Fibrosis with respect to the control group” value (nasal cavity tissue, Group 1, oral 10 mg/kg per day) was 513.89%, the “Percent increase in Fibrosis with respect to the control group” value (nasal cavity tissue, Group 2, oral 40 mg/kg per day) was 375.00% and the “Percent increase in Fibrosis with respect to the control group” value (nasal cavity tissue, Group 3, oral 80 mg/kg per day) was 300.00%. The “Percent increase in Fibrosis with respect to the control group” value (nasal cavity tissue, Group 4, oral 100 mg/kg per day) was 300.00%, the “Percent increase in Fibrosis with respect to the control group” value (nasal cavity tissue, Group 5, inhalation 0.05 mg/kg per day) was 700.00% and the “Percent increase in Fibrosis with respect to the control group” value (nasal cavity tissue, Group 6, inhalation 0.1 mg/kg per day) was 319.44%. The “Percent increase in Fibrosis with respect to the control group” value (nasal cavity tissue, Group 7, inhalation 0.2 mg/kg per day) was 163.89%, the “Percent increase in Fibrosis with respect to the control group” value (nasal cavity tissue, Group 8, inhalation 0.4 mg/kg per day) was 147.22% and the “Percent increase in Fibrosis with respect to the control group” value (pharyngeal tissue, Group 1, oral 10 mg/kg per day) was 489.54%. The “Percent increase in Fibrosis with respect to the control group” value (pharyngeal tissue, Group 2, oral 40 mg/kg per day) was 457.45%, the “Percent increase in Fibrosis with respect to the control group” value (pharyngeal tissue, Group 3, oral 80 mg/kg per day) was 380.00% and the “Percent increase in Fibrosis with respect to the control group” value (pharyngeal tissue, Group 4, oral 100 mg/kg per day) was 275.00%. For the same molecule, the “Percent increase in Fibrosis with respect to the control group” value (pharyngeal tissue, Group 5, inhalation 0.05 mg/kg per day) was 480.30%, the “Percent increase in Fibrosis with respect to the control group” value (pharyngeal tissue, Group 6, inhalation 0.1 mg/kg per day) was 258.34% and the “Percent increase in Fibrosis with respect to the control group” value (pharyngeal tissue, Group 7, inhalation 0.2 mg/kg per day) was 152.23%. For the same molecule, the “Percent increase in Fibrosis with respect to the control group” value (pharyngeal tissue, Group 8, inhalation 0.4 mg/kg per day) was 128.32%.
